These results are taken from article PMC7262789 (Journal of medicinal chemistry, 2019).

The first experiment addresses T1, recombinant sEH-P domain (N-terminal domain of sEH) (Homo sapiens, UniProt P34913).
T1 sequence (P34913 1-222): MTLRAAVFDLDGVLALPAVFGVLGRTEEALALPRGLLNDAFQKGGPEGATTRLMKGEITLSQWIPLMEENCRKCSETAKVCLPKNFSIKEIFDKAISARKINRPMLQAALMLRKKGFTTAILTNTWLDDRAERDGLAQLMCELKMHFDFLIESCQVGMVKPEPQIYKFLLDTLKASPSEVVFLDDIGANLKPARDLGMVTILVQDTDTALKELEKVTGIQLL
The experiment in a line: FDP-based phosphatase assay, isolated sEH-P domain. In kind it is biochemical. The following applies: FDP substrate, recombinant sEH-P domain.
With `O=C(O)CCc1nc(-c2ccccc2F)c(-c2ccccc2)o1` [20a, 3-(4-(2-Fluorophenyl)-5-phenyloxazol-2-yl)propanoic Acid], the “inhibitory potency toward sEH-P (SAR statement in words)” value (from here on “inhibitory potency toward sEH-P”) is “poorly tolerated”. Turning to `O=C(O)CCc1nc(-c2ccccc2Cl)c(-c2ccccc2)o1` [20b, 3-(4-(2-Chlorophenyl)-5-phenyloxazol-2-yl)propanoic Acid], the “inhibitory potency toward sEH-P” value is listed as “poorly tolerated”. The same measure, in the same setting: then `N#Cc1cccc(-c2nc(CCC(=O)O)oc2-c2ccccc2)c1` [20c, 3-(4-(3-Cyanophenyl)-5-phenyloxazol-2-yl)propanoic Acid], with “retained similar potency as 5”. Same read-out and setting: then `O=C(O)CCc1nc(-c2cccc(F)c2)c(-c2ccccc2)o1` [20d, 3-(4-(3-Fluorophenyl)-5-phenyloxazol-2-yl)propanoic Acid], with “retained similar potency as 5”; and `O=C(O)CCc1nc(-c2ccc(F)cc2)c(-c2ccccc2)o1` [20e, 3-(4-(4-Fluorophenyl)-5-phenyloxazol-2-yl)propanoic Acid], with “only slightly diminished the potency”; and `O=C(O)CCc1nc(-c2ccc(C(F)(F)F)cc2)c(-c2ccccc2)o1` [20f, 3-(5-Phenyl-4-(4-(trifluoromethyl)phenyl)oxazol-2-yl)propanoic Acid], with “loss of activity”. Take `N#Cc1ccc(-c2nc(CCC(=O)O)oc2-c2ccccc2)cc1` [20g, 3-(4-(4-Cyanophenyl)-5-phenyloxazol-2-yl)propanoic Acid]: the “inhibitory potency toward sEH-P” value was “loss of activity”. As for `O=C(O)CCc1nc(-c2ccc(Cl)cc2)c(-c2ccccc2)o1` [20h, 3-(4-(4-Chlorophenyl)-5-phenyloxazol-2-yl)propanoic Acid], the “inhibitory potency toward sEH-P” value is reported as “slightly enhanced inhibitory potency”. On the same count and under the same terms, then `COc1ccc(-c2nc(CCC(=O)O)oc2-c2ccccc2)cc1` [20i, 3-(4-(4-Methoxyphenyl)-5-phenyloxazol-2-yl)propanoic Acid], with “decreased the activity”; and `O=C(O)CCc1nc(-c2ccc(Cl)cc2Cl)c(-c2ccccc2)o1` [20l, 3-(4-(2,4-Dichlorophenyl)-5-phenyloxazol-2-yl)propanoic Acid], with “did not lead to potency improvement”; and `O=C(O)CCc1nc(-c2cc(Cl)cc(Cl)c2)c(-c2ccccc2)o1` [20m, 3-(4-(3,5-Dichlorophenyl)-5-phenyloxazol-2-yl)propanoic Acid], with “did not lead to potency improvement”. For `O=C(O)c1ccccc1-c1nc(-c2ccc(Cl)c(Cl)c2)c(-c2ccccc2)o1` [22c, 2-(4-(3,4-Dichlorophenyl)-5-phenyloxazol-2-yl)benzoic Acid], the “inhibitory potency toward sEH-P” value is on record as “did not retain this high potency”. Still for that read-out and setting: then `O=C(O)c1ccc(-c2nc(-c3ccc(Cl)c(Cl)c3)c(-c3ccccc3)o2)cc1` [22e, 4-(4-(3,4-Dichlorophenyl)-5-phenyloxazol-2-yl)benzoic Acid], with “did not retain this high potency”; and `O=C(O)CCCc1nc(-c2ccc(Cl)c(Cl)c2)c(-c2ccncc2)o1` [28a, 4-(4-(3,4-Dichlorophenyl)-5-(pyridin-4-yl)oxazol-2-yl)butanoic Acid], with “not favored”.

As for `O=C(O)CCCc1nc(-c2ccc(Cl)c(Cl)c2)c(-c2cccnc2)o1` [28b, 4-(4-(3,4-Dichlorophenyl)-5-(pyridin-3-yl)oxazol-2-yl)butanoic Acid], the “inhibitory potency toward sEH-P” value is “not favored”.

With `O=C(O)CCCc1nc(-c2ccc(Cl)c(Cl)c2)c(-c2cccc(F)c2)o1` [28e, 4-(4-(3,4-Dichlorophenyl)-5-(3-fluorophenyl)oxazol-2-yl)butanoic Acid], the “inhibitory potency toward sEH-P” value is “slight preference”. Same read-out and setting: next, `N#Cc1cccc(-c2oc(CCCC(=O)O)nc2-c2ccc(Cl)c(Cl)c2)c1` [28g, 4-(5-(3-Cyanophenyl)-4-(3,4-dichlorophenyl)oxazol-2-yl)butanoic Acid]: “slight preference”. The same measure, in the same setting: then `C#Cc1cccc(-c2oc(CCCC(=O)O)nc2-c2ccc(Cl)c(Cl)c2)c1` [28j, 4-(4-(3,4-Dichlorophenyl)-5-(3-ethynylphenyl)oxazol-2-yl)butanoic Acid], with “slight preference”.

As for `O=C(O)CSc1nc(-c2ccccc2)c(-c2ccccc2)o1` [compound 9, 2-((4,5-Diphenyloxazol-2-yl)thio)acetic Acid], the “inhibitory potency toward sEH-P” value was “slightly diminished the potency”. Still for that read-out and setting: then `NC(=O)CCc1nc(-c2ccccc2)c(-c2ccccc2)o1` [compound 12, 3-(4,5-Diphenyloxazol-2-yl)propanamide], with “complete loss of activity”; and `O=C(O)CCCc1nc(-c2ccc(Cl)c(Cl)c2)co1` [compound 25, 4-(4-(3,4-Dichlorophenyl)oxazol-2-yl)butanoic Acid], with “potency dropped dramatically”. The same measure, in the same setting: next, `O=C(O)CCCc1nc(-c2ccc(Cl)c(Cl)c2)c(Br)o1` [compound 26, 4-(5-Bromo-4-(3,4-dichlorophenyl)oxazol-2-yl)butanoic Acid]: “partially restored”.

The experiment is the same for the next values; noted with them: rigidization of the ethyl linker by a double bond.
In the case of `O=C(O)/C=C/c1nc(-c2ccc(Cl)c(Cl)c2)c(-c2ccccc2)o1` [22a, 3-(4-(3,4-Dichlorophenyl)-5-phenyloxazol-2-yl)acrylic Acid], the loss of potency came out at 2 fold.

The same experiment, now with this note: second chlorine at meta position, compared with 20h.
Consider `O=C(O)CCc1nc(-c2ccc(Cl)c(Cl)c2)c(-c2ccccc2)o1` [20k, 3-(4-(3,4-Dichlorophenyl)-5-phenyloxazol-2-yl)propanoic Acid], for which the “increase in sEH-P inhibition” value is recorded as “more than 10 fold”.

Another experiment has as its target T2, N-terminal domain of sEH (sEH-P) (Homo sapiens, UniProt P34913).
T2 sequence (P34913 2-224): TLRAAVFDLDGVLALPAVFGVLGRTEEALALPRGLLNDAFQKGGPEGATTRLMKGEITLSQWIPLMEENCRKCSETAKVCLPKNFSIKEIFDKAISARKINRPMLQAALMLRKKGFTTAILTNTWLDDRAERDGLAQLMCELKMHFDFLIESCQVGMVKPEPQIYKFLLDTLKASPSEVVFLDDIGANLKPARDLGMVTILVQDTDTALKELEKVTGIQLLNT
The experiment in a line: Differential scanning fluorimetry. The format is binding. The following applies: inhibitor 50 μM.
With `O=C(Nc1ccc(I)cc1)NC1CCCCC1` [CIU, N-cyclohexyl-N′-(4-iodophenyl)urea, reference compound], the “stabilization of the N-terminal domain in DSF” value is recorded as “no stabilizing effect”. Take `CC(=O)N[C@@H](CSC/C=C(\C)CC/C=C(\C)CCC=C(C)C)C(=O)O` [compound 2, N-acetyl-S-farnesyl-L-cysteine]: the “stabilization of the N-terminal domain in DSF” value was “able to stabilize”.

In the next experiment the target is T3, C-terminal domain of sEH (sEH-H) (Homo sapiens, UniProt P34913).
T3 sequence (P34913 235-555 limits assumed): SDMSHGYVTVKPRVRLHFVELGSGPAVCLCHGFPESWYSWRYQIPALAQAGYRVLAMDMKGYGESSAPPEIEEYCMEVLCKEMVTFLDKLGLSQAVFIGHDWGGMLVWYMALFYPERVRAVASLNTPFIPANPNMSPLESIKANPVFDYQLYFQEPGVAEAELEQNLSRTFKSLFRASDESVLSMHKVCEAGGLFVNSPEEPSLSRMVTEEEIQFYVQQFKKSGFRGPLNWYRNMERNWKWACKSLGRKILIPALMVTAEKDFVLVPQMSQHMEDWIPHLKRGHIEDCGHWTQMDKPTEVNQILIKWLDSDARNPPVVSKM
The experiment can be described thus: Differential scanning fluorimetry. The following applies: inhibitor 50 μM. In kind it is binding.
With `O=C(Nc1ccc(I)cc1)NC1CCCCC1` [CIU, N-cyclohexyl-N′-(4-iodophenyl)urea, reference compound], the “stabilization of the C-terminal domain in DSF” value is “significantly increased”.

The next experiment has as its target T4, full-length human sEH (Homo sapiens, UniProt P34913).
T4 sequence (P34913 1-555): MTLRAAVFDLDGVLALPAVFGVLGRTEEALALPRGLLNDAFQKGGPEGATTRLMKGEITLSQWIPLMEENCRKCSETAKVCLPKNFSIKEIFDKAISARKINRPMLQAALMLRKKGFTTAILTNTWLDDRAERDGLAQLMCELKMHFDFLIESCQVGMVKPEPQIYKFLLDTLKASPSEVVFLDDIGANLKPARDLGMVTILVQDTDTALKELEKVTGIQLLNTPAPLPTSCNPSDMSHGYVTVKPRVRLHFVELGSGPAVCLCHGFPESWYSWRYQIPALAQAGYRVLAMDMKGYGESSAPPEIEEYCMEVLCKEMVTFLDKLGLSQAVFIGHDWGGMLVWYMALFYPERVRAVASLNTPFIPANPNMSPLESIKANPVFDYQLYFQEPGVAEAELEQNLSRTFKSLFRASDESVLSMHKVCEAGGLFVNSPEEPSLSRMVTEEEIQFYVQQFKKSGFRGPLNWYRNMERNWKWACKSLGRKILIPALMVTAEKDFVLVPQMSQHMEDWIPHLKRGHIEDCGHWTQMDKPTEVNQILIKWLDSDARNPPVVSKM
The experiment can be described thus: DiFMUP-based phosphatase assay, full-length sEH. The following applies: substrate.
With `Cc1cc(=O)oc2c(F)c(OP(=O)(O)O)c(F)cc12` [DiFMUP, reference compound], the Km came out at 628 µM.

The target of another experiment is T5, isolated N-terminal domain of sEH (sEH-P) (Homo sapiens, UniProt P34913).
T5 sequence (P34913 1-222): T1 sequence (P34913 1-222)
The experiment in a line: DiFMUP-based phosphatase assay, isolated N-terminal domain. The following applies: substrate.
As for `Cc1cc(=O)oc2c(F)c(OP(=O)(O)O)c(F)cc12` [DiFMUP, reference compound], the Km was 220 µM.
